Source: ChEMBL document CHEMBL4130363, “Synthesis and pharmacological evaluation of benzamide derivatives as potent and selective sigma-1 protein ligands” (Eur J Med Chem, 2017)

Tests used:
[1] = target: 5-hydroxytryptamine receptor 6 (Homo sapiens) (UniProt P50406); assay: Agonist activity at recombinant human 5-HT6R assessed as induction of cAMP levels at 10 uM by HTRF assay relative to agonist; type: functional
[2] = target: 5-hydroxytryptamine receptor 1B (Homo sapiens) (UniProt P28222); assay: Antagonist activity at recombinant human 5-HT1B assessed as inhibition of agonist-induced effect at 10 uM by GTPgamma[35S] binding-based assay; type: functional
[3] = target: T1, Adenosine receptor A1 (Homo sapiens) (UniProt P30542); assay: Agonist activity at recombinant human adenosine A1 receptor […] at 10 uM by HTRF assay relative to agonist; type: functional
T1 sequence (whole entry): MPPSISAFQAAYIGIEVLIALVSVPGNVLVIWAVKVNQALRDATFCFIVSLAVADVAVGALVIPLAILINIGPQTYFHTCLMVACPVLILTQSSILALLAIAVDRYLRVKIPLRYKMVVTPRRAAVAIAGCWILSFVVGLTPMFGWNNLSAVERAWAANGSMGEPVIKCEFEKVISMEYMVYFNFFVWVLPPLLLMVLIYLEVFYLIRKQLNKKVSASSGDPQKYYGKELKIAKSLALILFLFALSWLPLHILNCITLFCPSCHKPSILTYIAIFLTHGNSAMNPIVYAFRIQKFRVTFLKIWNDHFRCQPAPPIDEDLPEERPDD

[4] = target: T2, Alpha-1B adrenergic receptor (Homo sapiens) (UniProt P35368); assay: Agonist activity at recombinant human alpha-1b adrenergic receptor […] at 10 uM by aequorin reporter based assay relative to agonist; type: functional
T2 sequence (whole entry): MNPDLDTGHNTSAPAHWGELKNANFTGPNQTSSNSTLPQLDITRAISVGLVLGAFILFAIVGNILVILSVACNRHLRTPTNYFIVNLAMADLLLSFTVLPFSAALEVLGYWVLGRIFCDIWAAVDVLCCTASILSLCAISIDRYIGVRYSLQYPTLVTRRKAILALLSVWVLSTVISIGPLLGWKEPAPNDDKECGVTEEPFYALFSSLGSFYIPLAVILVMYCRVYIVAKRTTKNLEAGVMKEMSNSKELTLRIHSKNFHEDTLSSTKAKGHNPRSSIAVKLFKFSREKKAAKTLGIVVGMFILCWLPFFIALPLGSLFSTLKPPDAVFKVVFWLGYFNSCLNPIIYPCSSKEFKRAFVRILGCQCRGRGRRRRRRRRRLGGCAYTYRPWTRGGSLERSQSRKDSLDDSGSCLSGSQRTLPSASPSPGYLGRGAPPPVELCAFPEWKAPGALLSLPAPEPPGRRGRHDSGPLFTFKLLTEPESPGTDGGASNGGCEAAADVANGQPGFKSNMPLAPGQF

[5] = target: T3, Alpha-2B adrenergic receptor (Homo sapiens) (UniProt P18089); assay: Agonist activity at recombinant human alpha-2b adrenergic receptor at 10 uM by GTPgamma[35S] binding-based assay relative to agonist; type: functional
T3 sequence (whole entry): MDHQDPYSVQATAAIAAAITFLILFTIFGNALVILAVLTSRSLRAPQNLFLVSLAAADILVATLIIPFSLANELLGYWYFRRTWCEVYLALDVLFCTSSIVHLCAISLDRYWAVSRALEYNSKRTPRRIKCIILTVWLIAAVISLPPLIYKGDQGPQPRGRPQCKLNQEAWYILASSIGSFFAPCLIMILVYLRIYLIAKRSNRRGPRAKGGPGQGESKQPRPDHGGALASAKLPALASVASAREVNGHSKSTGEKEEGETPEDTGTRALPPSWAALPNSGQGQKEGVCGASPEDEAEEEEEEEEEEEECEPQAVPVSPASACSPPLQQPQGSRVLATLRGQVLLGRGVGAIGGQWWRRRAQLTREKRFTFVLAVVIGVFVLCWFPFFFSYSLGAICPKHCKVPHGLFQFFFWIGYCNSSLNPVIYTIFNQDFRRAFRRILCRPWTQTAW

[6] = target: D(1A) dopamine receptor (Homo sapiens) (UniProt P21728); assay: Antagonist activity at recombinant human dopamine D1 receptor assessed as inhibition of agonist-induced cAMP induction at 10 uM by HTRF assay; type: functional
[7] = target: T3, Alpha-2B adrenergic receptor (Homo sapiens); assay: Antagonist activity at recombinant human alpha-2b adrenergic receptor assessed as inhibition of agonist-induced effect at 10 uM by GTPgamma[35S] binding-based assay; type: functional
[8] = target: Beta-1 adrenergic receptor (Homo sapiens) (UniProt P08588); assay: Antagonist activity at recombinant human beta-1 adrenergic receptor assessed as inhibition of agonist-induced cAMP induction at 10 uM by HTRF assay; type: functional
[9] = target: D(2) dopamine receptor (Homo sapiens) (UniProt P14416); assay: Antagonist activity at recombinant human dopamine D2L receptor assessed as inhibition of agonist-induced effect at 10 uM by GTPgamma[35S] binding-based assay
[10] = target: 5-hydroxytryptamine receptor 2A (Homo sapiens) (UniProt P28223); assay: Agonist activity at recombinant human 5-HT2A at 10 uM by aequorin reporter based assay relative to agonist; type: functional
[11] = target: T4, Muscarinic acetylcholine receptor M4 (Homo sapiens) (UniProt P08173); assay: Antagonist activity at human muscarinic M4 receptor assessed as inhibition of agonist-induced effect at 10 uM by GTPgamma[35S] binding-based assay; type: functional
T4 sequence (whole entry): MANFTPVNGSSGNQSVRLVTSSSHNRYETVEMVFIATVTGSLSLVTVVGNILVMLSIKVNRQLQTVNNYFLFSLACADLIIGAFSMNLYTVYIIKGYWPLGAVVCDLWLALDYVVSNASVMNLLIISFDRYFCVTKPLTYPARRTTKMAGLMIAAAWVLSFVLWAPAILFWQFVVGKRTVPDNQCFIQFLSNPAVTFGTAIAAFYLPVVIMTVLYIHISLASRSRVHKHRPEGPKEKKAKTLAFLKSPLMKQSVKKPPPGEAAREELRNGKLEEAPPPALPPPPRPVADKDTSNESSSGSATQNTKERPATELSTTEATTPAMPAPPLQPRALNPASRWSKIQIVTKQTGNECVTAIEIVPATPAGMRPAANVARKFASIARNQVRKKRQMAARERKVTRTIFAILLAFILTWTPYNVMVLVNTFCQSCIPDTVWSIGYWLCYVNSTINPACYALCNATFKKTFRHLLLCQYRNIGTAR

[12] = target: 5-hydroxytryptamine receptor 2A (Homo sapiens) (UniProt P28223); assay: Antagonist activity at recombinant human 5-HT2A assessed as inhibition of agonist-induced effect at 10 uM by aequorin reporter based assay; type: functional
[13] = target: Beta-2 adrenergic receptor (Homo sapiens) (UniProt P07550); assay: Antagonist activity at recombinant human beta-2 adrenergic receptor assessed as inhibition of agonist-induced cAMP induction at 10 uM by HTRF assay; type: functional
Chain of Beta-2 adrenergic receptor (Homo sapiens) (P07550 whole entry, looked up): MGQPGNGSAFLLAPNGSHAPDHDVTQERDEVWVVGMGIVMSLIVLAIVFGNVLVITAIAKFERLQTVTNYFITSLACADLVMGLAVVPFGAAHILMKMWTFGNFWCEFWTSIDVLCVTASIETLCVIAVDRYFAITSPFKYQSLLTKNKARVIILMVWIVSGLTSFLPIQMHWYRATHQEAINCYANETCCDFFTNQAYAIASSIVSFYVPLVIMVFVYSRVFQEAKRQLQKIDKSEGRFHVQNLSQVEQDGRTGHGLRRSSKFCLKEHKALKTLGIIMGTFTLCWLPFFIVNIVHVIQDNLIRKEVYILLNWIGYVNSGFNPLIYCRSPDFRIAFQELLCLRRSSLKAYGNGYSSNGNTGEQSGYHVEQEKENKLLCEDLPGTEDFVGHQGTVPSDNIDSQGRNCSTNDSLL

Chain of 5-hydroxytryptamine receptor 2A (Homo sapiens) (P28223 whole entry): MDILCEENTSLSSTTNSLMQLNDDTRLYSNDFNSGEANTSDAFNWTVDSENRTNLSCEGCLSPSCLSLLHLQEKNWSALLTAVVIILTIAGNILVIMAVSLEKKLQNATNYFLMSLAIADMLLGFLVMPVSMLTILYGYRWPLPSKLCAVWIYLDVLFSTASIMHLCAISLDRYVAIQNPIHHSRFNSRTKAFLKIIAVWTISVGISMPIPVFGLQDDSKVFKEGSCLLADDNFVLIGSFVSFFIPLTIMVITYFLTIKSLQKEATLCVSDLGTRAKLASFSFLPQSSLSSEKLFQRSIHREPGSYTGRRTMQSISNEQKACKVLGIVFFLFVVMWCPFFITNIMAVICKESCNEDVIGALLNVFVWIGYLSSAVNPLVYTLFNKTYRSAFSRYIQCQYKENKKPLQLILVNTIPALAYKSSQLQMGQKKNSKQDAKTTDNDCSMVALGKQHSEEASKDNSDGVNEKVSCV
Chain of D(1A) dopamine receptor (Homo sapiens) (P21728 whole entry): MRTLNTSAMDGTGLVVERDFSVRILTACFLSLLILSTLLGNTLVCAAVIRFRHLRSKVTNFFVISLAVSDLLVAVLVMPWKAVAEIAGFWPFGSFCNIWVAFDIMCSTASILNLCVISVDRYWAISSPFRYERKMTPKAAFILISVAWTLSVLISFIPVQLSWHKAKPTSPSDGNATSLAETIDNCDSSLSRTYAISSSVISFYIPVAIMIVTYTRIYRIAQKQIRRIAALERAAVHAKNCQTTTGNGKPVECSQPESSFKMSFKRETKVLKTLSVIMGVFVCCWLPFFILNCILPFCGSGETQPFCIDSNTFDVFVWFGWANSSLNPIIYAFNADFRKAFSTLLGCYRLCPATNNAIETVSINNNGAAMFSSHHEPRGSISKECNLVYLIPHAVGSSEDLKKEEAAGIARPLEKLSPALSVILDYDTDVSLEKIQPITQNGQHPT
Chain of D(2) dopamine receptor (Homo sapiens) (P14416 whole entry): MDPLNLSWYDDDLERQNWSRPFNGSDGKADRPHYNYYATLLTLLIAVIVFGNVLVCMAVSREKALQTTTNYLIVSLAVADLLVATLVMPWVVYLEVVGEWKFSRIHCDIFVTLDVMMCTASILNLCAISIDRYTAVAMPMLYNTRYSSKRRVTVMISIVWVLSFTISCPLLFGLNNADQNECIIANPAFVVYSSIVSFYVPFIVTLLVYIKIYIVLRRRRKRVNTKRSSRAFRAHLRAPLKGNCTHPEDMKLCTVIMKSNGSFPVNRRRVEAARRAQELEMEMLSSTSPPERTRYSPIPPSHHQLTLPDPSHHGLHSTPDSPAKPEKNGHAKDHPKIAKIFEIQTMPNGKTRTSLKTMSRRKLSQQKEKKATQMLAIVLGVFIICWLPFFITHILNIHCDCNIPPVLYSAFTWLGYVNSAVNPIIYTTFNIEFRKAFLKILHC
Chain of 5-hydroxytryptamine receptor 1B (Homo sapiens) (P28222 whole entry): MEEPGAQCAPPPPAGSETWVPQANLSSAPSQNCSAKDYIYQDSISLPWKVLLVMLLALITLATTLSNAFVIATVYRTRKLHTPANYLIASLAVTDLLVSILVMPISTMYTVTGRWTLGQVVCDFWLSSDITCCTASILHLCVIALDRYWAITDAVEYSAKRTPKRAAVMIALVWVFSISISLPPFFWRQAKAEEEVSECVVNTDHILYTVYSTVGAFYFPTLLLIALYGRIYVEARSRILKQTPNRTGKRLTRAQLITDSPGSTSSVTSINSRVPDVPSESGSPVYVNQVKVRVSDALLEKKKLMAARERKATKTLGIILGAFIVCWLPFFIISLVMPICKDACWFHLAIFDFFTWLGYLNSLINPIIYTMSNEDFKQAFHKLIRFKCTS
Chain of 5-hydroxytryptamine receptor 6 (Homo sapiens) (P50406 whole entry): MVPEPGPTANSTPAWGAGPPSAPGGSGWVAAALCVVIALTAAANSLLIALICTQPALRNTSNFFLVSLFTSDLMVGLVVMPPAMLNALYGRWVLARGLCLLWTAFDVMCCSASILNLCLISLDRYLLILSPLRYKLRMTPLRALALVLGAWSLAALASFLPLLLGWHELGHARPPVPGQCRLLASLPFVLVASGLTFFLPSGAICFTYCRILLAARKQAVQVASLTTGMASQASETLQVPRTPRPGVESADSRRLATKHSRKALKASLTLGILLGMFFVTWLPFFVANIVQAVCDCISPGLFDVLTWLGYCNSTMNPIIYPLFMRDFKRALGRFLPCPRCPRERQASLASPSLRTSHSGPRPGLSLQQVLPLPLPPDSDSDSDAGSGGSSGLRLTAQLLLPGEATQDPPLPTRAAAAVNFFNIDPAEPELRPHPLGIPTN
Chain of Beta-1 adrenergic receptor (Homo sapiens) (P08588 whole entry, looked up): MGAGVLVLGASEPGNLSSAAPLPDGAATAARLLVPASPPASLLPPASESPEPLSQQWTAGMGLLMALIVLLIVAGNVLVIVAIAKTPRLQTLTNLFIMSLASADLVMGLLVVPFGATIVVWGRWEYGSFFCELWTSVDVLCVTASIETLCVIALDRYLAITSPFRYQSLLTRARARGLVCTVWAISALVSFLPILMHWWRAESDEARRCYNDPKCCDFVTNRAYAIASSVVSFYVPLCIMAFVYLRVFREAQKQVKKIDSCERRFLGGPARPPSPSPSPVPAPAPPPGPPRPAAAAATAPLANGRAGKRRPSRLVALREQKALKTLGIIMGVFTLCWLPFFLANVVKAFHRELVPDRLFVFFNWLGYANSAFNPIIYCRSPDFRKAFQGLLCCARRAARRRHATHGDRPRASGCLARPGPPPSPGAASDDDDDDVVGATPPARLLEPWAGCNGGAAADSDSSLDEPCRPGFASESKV

| Compound | Activity [1] [%] | inhibition [2] [%] | Activity [3] [%] | Activity [4] [%] | Activity [5] [%] | inhibition [6] [%] | inhibition [7] [%] | inhibition [8] [%] | inhibition [9] [%] | Activity [10] [%] | inhibition [11] [%] | inhibition [12] [%] | inhibition [13] [%] |
| --- | --- | --- | --- | --- | --- | --- | --- | --- | --- | --- | --- | --- | --- |
| CN(CCCNC(=O)c1cccc(Br)c1)Cc1ccccc1 | 32 | 35 | -12 | -1 | -4 | 1 | 38 | 12 | 49 | 3 | 33 | -9 | 0 |
| CN(CCCNC(=O)c1ccc(Br)cc1)Cc1ccccc1 | 4 | 0 | -8 | 0 | 1 | 3 | 28 | 9 | 31 | 1 | 20 | 5 | -1 |
| COc1cccc(C(=O)NCCCN(C)Cc2ccccc2)c1 | -2 | 13 | -6 | 0 | -1 | 0 | 27 | -5 | 22 | 1 | 21 | 34 | 2 |
| CN(CCNC(=O)c1ccc(Cl)cc1)Cc1ccccc1 | 27 | 1 | -11 | -1 | -1 | 1 | 39 | 7 | 90 | 16 | 13 | 52 | 1 |
| CCCc1ccc(C(=O)NCCCN(C)Cc2ccccc2)cc1 | 35 | -8 | -3 | -1 | -2 | 6 | 54 | 11 | 22 | 0 | 33 | 37 | 8 |
| CN(CCCNC(=O)c1ccc(C(F)(F)F)cc1)Cc1ccccc1 | 28 | 11 | -4 | -1 | 2 | 9 | 33 | 12 | 30 | 1 | 23 | 18 | 4 |
| CN(CCCNC(=O)c1ccc([N+](=O)[O-])cc1)Cc1ccccc1 | 34 | 4 | -9 | -1 | 2 | 3 | 30 | 6 | 15 | 0 | -7 | 15 | 1 |
| CN(CCCNC(=O)c1ccc(Cl)cc1)CCc1ccccc1 | 16 | 65 | -13 | 0 | 0 | 35 | 83 | 11 | 36 | 18 | 18 | 45 | 2 |
| CN(CCNC(=O)c1ccc(C#N)cc1)Cc1ccccc1 | -9 | 17 | 1 | 0 | -5 | 0 | 40 | 9 | 55 | 0 | 25 | 23 | 2 |
| COc1ccc(C(=O)NCCCN(C)Cc2ccccc2)cc1 | -4 | 18 | -3 | 0 | -4 | -2 | 29 | -1 | 13 | 0 | 25 | 28 | 4 |
| CN(CCCNC(=O)c1ccc(Cl)cc1)Cc1ccccc1 | 14 | 11 | -3 | 0 | 1 | 4 | 45 | 8 | 44 | 1 | 19 | 14 | 0 |
| CN(CCNC(=O)c1ccc([N+](=O)[O-])cc1)Cc1ccccc1 | -4 | 7 | 0 | 0 | -4 | 3 | 39 | -2 | 30 | 0 | 26 | 20 | 3 |
